Results: patent publication US5486517A, “Benzimidazoles and imidazopyridines as central nervous system agents” (Warner-Lambert Company, priority 1994, dated 1996)
pIC50: −log10 of the molar value. Like-named read-outs stand apart in the source and are kept apart here.

Tests used:
Human D2 Receptors = target: T1, Human D2 Receptors (Homo sapiens, UniProt P14416); assay: Inhibition of [^3 H]spiperone binding to human D2 receptors
T1 construct: expressed in transfected cells
Text: (§1) The compounds of Formula I are valuable dopaminergic agents. Dopamine D2 antagonists are established as antipsychotic agents. More recently, the dopamine D3 receptor has been identified. On the basis of the localization of the dopamine D3 receptor in the limbic area of the brain, a selective D3 antagonist should show antipsychotic activity but not have the neurological side effects of D2 antagonists. The tests employed indicate that compounds of Formula I bind selectively to the dopamine D3 receptor. Thus, the compounds of Formula I were tested for their ability to bind to dopamine receptors as measured by their inhibition of [^3 H]spiperone binding to the human D2 and D3 receptors in a receptor assay described by MacKenzie R. G., et al., Characterization of the human D3 dopamine receptor expressed in transfected cell lines, Eur. J. Pharmacol., 266:79 (1994); and for their ability to inhibit locomotor activity in mice and rats, a measure of antipsychotic activity, according to the assay described by McLean J. R., et al., Pharmacology, Biochemistry and Behavior, 8:97-99 (1978). The above test methods are incorporated herein by reference.

Human D3 Receptors = target: T2, Human D3 Receptors (Homo sapiens, UniProt P35462); assay: Inhibition of [^3 H]spiperone binding to human D3 receptors
T2 construct: expressed in transfected cells
T2 sequence (P35462 whole entry): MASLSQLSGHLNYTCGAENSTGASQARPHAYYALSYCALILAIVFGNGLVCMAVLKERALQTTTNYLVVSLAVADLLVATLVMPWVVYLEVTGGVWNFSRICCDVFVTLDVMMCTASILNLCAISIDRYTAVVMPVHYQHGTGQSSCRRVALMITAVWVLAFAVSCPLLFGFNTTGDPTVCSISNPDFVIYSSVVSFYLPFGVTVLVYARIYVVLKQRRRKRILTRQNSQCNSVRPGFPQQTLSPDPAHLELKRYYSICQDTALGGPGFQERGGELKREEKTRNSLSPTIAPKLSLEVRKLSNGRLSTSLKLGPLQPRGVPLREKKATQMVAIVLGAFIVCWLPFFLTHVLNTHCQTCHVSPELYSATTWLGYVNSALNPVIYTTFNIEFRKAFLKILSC
Text: Dopamine D2 antagonists are established as antipsychotic agents. More recently, the dopamine D3 receptor has been identified. On the basis of the localization of the dopamine D3 receptor in the limbic area of the brain, a selective D3 antagonist should show antipsychotic activity but not have the neurological side effects of D2 antagonists. […] The above test methods are incorporated herein by reference.

[1] = system: Locomotor Activity in Rats; assay: Inhibition of locomotor activity in rats; format: in vivo; details: Rattus norvegicus, IP
Text: as §1

[2] = human D2, read-out: Inhibition of [^3 H]Spiperone Binding to Human D2 Receptors IC50
[3] = human D3, transfected cell lines, read-out: Inhibition of [^3 H]Spiperone Binding to Human D3 Receptors IC50

T1 sequence (P14416 whole entry): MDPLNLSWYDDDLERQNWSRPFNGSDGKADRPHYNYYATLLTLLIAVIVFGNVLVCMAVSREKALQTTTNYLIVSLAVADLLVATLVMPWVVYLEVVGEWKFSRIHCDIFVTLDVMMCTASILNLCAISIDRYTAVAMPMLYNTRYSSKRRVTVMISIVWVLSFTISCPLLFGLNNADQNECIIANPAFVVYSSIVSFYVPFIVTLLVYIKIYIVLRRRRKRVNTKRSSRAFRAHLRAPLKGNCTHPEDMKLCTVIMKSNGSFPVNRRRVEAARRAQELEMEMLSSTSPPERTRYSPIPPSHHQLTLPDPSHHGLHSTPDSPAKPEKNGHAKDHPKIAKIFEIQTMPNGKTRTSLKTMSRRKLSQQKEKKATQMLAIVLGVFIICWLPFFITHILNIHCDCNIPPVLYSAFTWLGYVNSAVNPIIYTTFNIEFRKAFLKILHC

Row | Structure (SMILES) | pIC50 (Human D2 Receptors; [2]) | pIC50 (Human D3 Receptors; [3]) | other results
1 | CCCSc1ccccc1N1CCN(CCCOc2ccc(-c3nc4ccccc4[nH]3)cc2)CC1 [Example 7, 2-[4-[3-[4-[2-(Propylthio)phenyl]-1-piperazinyl]propoxy]phenyl]-1H-benzimidazole] | 8.43 |  | 
2 | Clc1cccc(N2CCN(CCCOc3ccc(-c4nc5ccccc5[nH]4)cc3)CC2)c1Cl [Example 2, 2-[4-[3-[4-(2,3-Dichlorophenyl)-1-piperazinyl]propoxy]phenyl]-1H-benzimidazole] | 7.35 | 8.77 | 
3 | COc1ccc(N2CCN(CCCOc3ccc(-c4nc5ccccc5[nH]4)cc3)CC2)cc1 [Example 11, 2-[4-[3-[4-(4-Methoxyphenyl)-1-piperazinyl]-propoxy]phenyl]-1H-benzimidazole] | 6.58 |  | 
4 | C1=C(c2ccccc2)CCN(CCCOc2ccc(-c3nc4ccccc4[nH]3)cc2)C1 [Example 8, 2-[4-[3-(3,6-Dihydro-4-phenyl-1(2H)-pyridinyl)propoxy]phenyl]-1H-benzimidazole] | 6.17 |  | pIC50 (Human D3 Receptors): 7.74
5 | c1ccc(N2CCN(CCCNc3ccc(-c4nc5ccccc5[nH]4)cc3)CC2)cc1 [Example 17, N-[4-(1H-Benzimidazol-2-yl)phenyl]-4-phenyl-1-piperazine-3-propanamine] | 7.66 | 8.80 | 
6 | c1ccc(N2CCN(CCCOc3ccc(-c4nc5ccccc5[nH]4)cc3)CC2)nc1 [Example 3, 2-[4-[3-[4-(2-Pyridinyl)-1-piperazinyl]propoxy]phenyl]-1H-benzimidazole] | 7.15 |  | 
7 | O=C(NCCN1CCN(c2ccccc2)CC1)c1ccc(-c2nc3ccccc3[nH]2)cc1 [Example 18, 4-(1H-Benzimidazol-2-yl)-N-[2-(4-phenyl-1-piperazinyl)ethyl]benzamide] | 6.55 |  | 
8 | C(=C/c1ccc(-c2nc3ccccc3[nH]2)cc1)/CCN1CCN(c2ccccc2)CC1 [Example 21, (Z)-2-[4-[4-(4-Phenyl-1-piperazinyl)-1-butenyl]phenyl]-1H-benzimidazole] | 7.00 | 7.09 | 
9 | c1ccc(N2CCN(CCCOc3ccc(-c4nc5ccccc5[nH]4)cc3)CC2)cc1 [Example 1, 2-[4-[3-(4-Phenyl-1-piperazinyl)propoxy]phenyl]-1H-benzimidazole] | 6.39 | 9.00 | ED50 [1]: 2.3 mg/kg
10 | c1ccc(N2CCN(CCCCOc3ccc(-c4nc5ccccc5[nH]4)cc3)CC2)cc1 [Example 16, 2-[4-[4-(4-Phenyl-1-piperazinyl)butoxy]phenyl]-1H-benzimidazole] | 7.34 | 8.77 | 
11 | CCCSc1ccccc1N1CCN(CCNC(=O)c2ccc(-c3nc4ccccc4[nH]3)cc2)CC1 [Example 19, 4-(1H-Benzimidazol-2-yl)-N-[2-[4-[2-(propylthio)phenyl]-1-piperazinyl]ethyl]benzamide] | 6.92 | 7.72 | 
12 | c1ccc(N2CCN(CCCCc3ccc(-c4nc5ccccc5[nH]4)cc3)CC2)cc1 [Example 22, 2-[4-[4-(4-Phenyl-1-piperazinyl)butyl]phenyl]-1H-benzimidazole] | 7.49 | 8.89 | 
13 | Fc1ccc(N2CCN(CCCOc3ccc(-c4nc5ccccc5[nH]4)cc3)CC2)cc1 [Example 6, 2-[4-[3-[4-(4-Fluorophenyl)-1-piperazinyl]propoxy]phenyl]-1H-benzimidazole] | 6.92 | 7.80 | 
14 | Cn1c(-c2ccc(OCCCN3CCN(c4ccccc4)CC3)cc2)nc2ccccc21 [Example 14, 1-Methyl-2-[4-[3-(4-phenyl-1-piperazinyl)-propoxy]phenyl]-1H-benzimidazole] | 6.66 | 8.02 | 
15 | Clc1cccc(N2CCN(CCCOc3ccc(-c4nc5ccccc5[nH]4)cc3)CC2)c1 [Example 12, 2-[4-[3-[4-(3-Chlorophenyl)-1-piperazinyl]-propoxy]phenyl]-1H-benzimidazole] | 5.90 |  | 
16 | Cc1ccc(N2CCN(CCCOc3ccc(-c4nc5ccccc5[nH]4)cc3)CC2)cc1 [Example 5, 2-[4-[3-[4-(4-Methylphenyl)-1-piperazinyl]propoxy]phenyl]-1H-benzimidazole] | 5.56 | 6.99 | 
17 | COc1ccccc1N1CCN(CCCOc2ccc(-c3nc4ccccc4[nH]3)cc2)CC1 [Example 10, 2-[4-[3-[4-(2-Methoxyphenyl)-1-piperazinyl]-propoxy]phenyl]-1H-benzimidazole] |  |  | pIC50 (Human D2 Receptors): 8.10
18 | Clc1cccc(N2CCN(CCCOc3ccc(-c4nc5cccnc5[nH]4)cc3)CC2)c1Cl [Example 13, 2-[4-[3-[4-(2,3-Dichlorophenyl)-1-piperazinyl]propoxy]phenyl]-3H-imidazo[4,5-b]pyridine] | 6.48 | 8.52 | ED50 [1]: 4.2 mg/kg
19 | C(#Cc1ccc(-c2nc3ccccc3[nH]2)cc1)CCN1CCN(c2ccccc2)CC1 [Example 15, 2-[4-[4-(4-Phenyl-1-piperazinyl)-1-butynyl]phenyl]-1H-benzimidazole] | 6.24 | 8.77 | 
20 | COc1ccccc1N1CCN(CCNC(=O)c2ccc(-c3nc4ccccc4[nH]3)cc2)CC1 [Example 20, 4-(1H-Benzimidazol-2-yl)-N-[2-[4-(2-methoxyphenyl)-1-piperazinyl]ethyl]benzamide] | 7.26 | 7.62 | 
21 | Clc1ccc(N2CCN(CCCOc3ccc(-c4nc5ccccc5[nH]4)cc3)CC2)cc1 [Example 9, 2-[4-[3-[4-(4-Chlorophenyl)-1-piperazinyl]propoxy]phenyl]-1H-benzimidazole] | 6.11 |  | 
22 | c1cnc(N2CCN(CCCOc3ccc(-c4nc5ccccc5[nH]4)cc3)CC2)nc1 [Example 4, 2-[4-[3-[4-(2-Pyrimidinyl)-1-piperazinyl]propoxy]phenyl]-1H-benzimidazole] | 6.57 |  | 
